We go through 13 molecules from the NIST ThermoML archive (doi:10.1021/je0499723).

Numbers after ± are expanded uncertainties.

A short description of series [1]: xn = mol fraction of the nth substance listed. The note with it: Liquid.
The conditions of series [2]: Liquid; for Critical pressure: Direct measurement; for Critical temperature: Visual observation in an unstirred cell.

As to `COC(F)(F)F` [trifluoromethoxymethane] + FC(F)C(F)C(F)(F)F, the Critical density in series [1] (x1 = 1) is 459 ± 11 kg/m3.

As for `FC(F)C(F)(F)F` [pentafluoroethane], in series [2], the Critical density was 560 ± 13 kg/m3, the Critical pressure is 3617 ± 12 kPa and the Critical temperature came to 339.2 ± 0.16 K.

Consider `FC(C(F)(F)F)C(F)(F)F` [1,1,1,2,3,3,3-heptafluoropropane], for which, in series [2], the Critical density was found to be 598 ± 14 kg/m3, the Critical pressure was 2930 ± 12 kPa and the Critical temperature was found to be 375 ± 0.16 K.

Take `FC(F)C(F)C(F)(F)F` (stereo not drawn) [1,1,1,2,3,3-hexafluoropropane]: in series [2], the Critical density was found to be 562 ± 13 kg/m3, the Critical pressure stood at 3416 ± 12 kPa and the Critical temperature came to 412.41 ± 0.16 K.

With `FCC(F)(F)F` [1,1,1,2-tetrafluoroethane] + COC(F)(F)F, the Critical density in series [1] (x2 = 0) amounted to 508 ± 12 kg/m3.

Take `FCC(F)(F)F` [1,1,1,2-tetrafluoroethane]: in series [2], the Critical density worked out at 508 ± 12 kg/m3, the Critical pressure is on record as 4053 ± 12 kPa and the Critical temperature came out at 374.13 ± 0.16 K.

Regarding `FC(F)C(F)(F)F` [pentafluoroethane] + COC(F)(F)F, the Critical density in series [1] (x2 = 0) was 560 ± 13 kg/m3.

Regarding `COC(F)(F)F` [trifluoromethoxymethane] + FC(F)C(F)(F)F, the Critical density in series [1] (x1 = 0.1859) was 555 ± 13 kg/m3; in series [1] (x1 = 0.3073) it was 523 ± 12 kg/m3; in series [1] (x1 = 0.5185), 515 ± 12 kg/m3; in series [1] (x1 = 0.7094), 491 ± 11 kg/m3; in series [1] (x1 = 0.8305), 479 ± 11 kg/m3; in series [1] (x1 = 1) it was 459 ± 11 kg/m3.

On to `FC(C(F)(F)F)C(F)(F)F` [1,1,1,2,3,3,3-heptafluoropropane] + COC(F)(F)F, for which the Critical density in series [1] (x2 = 0) stood at 598 ± 14 kg/m3.

In the case of `COC(F)(F)F` [trifluoromethoxymethane] + FC(C(F)(F)F)C(F)(F)F, the Critical density in series [1] (x1 = 0.1647) came out at 574 ± 13 kg/m3; in series [1] (x1 = 0.3999), 543 ± 13 kg/m3; in series [1] (x1 = 0.4999), 526 ± 12 kg/m3; in series [1] (x1 = 0.6664), 508 ± 12 kg/m3; in series [1] (x1 = 0.8165) it was 486 ± 11 kg/m3; in series [1] (x1 = 1), 459 ± 11 kg/m3.

Consider `COC(F)(F)F` [trifluoromethoxymethane] + FCC(F)(F)F, for which the Critical density in series [1] (x1 = 0.1649) came to 508 ± 12 kg/m3; in series [1] (x1 = 0.2914), 492 ± 11 kg/m3; in series [1] (x1 = 0.4897), 486 ± 11 kg/m3; in series [1] (x1 = 0.6543), 480 ± 11 kg/m3; in series [1] (x1 = 0.8151), 468 ± 11 kg/m3; in series [1] (x1 = 1) it was 459 ± 11 kg/m3.

Turning to `COC(F)(F)F` [trifluoromethoxymethane], in series [2], the Critical density was determined as 459 ± 11 kg/m3, the Critical pressure came to 3640 ± 12 kPa and the Critical temperature was 377.92 ± 0.16 K.

With `FC(F)C(F)C(F)(F)F` (stereo not drawn) [1,1,1,2,3,3-hexafluoropropane] + COC(F)(F)F, the Critical density in series [1] (x2 = 0) amounted to 562 ± 13 kg/m3; in series [1] (x2 = 0.2452) it was 545 ± 13 kg/m3; in series [1] (x2 = 0.3348), 541 ± 13 kg/m3; in series [1] (x2 = 0.5434), 518 ± 12 kg/m3; in series [1] (x2 = 0.7338) it was 497 ± 12 kg/m3; in series [1] (x2 = 0.8497), 476 ± 11 kg/m3.
